Reference: patent publication US8802597B2, “Herbicidal pyrimidines” (E I du Pont de Nemours and Company, priority 2003, dated 2014)

Assays:
Assay type in all cases: in vivo
[1] = system: morningglory (Ipomoea coccinea); test: Test B pre/postemergence
Outline: (§1)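 Compounds in non-phytotoxic solvent with surfactant applied preemergence to planted seeds or postemergence to plants 2 to 18 cm tall (1- to 4-leaf stage). Greenhouse 13 to 15 days, then visual rating against controls on a 0 to 100 scale (100 = complete control).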

[2] = system: crabgrass (Digitaria sanguinalis); test: Test B pre/postemergence
Outline: as §1

[3] = system: cocklebur (Xanthium strumarium); test: Test B pre/postemergence
Outline: as §1

corn (Zea mays) = test: Test B pre/postemergence
Outline: as §1

[4] = system: lambsquarters (Chenopodium album); test: Test B pre/postemergence
Outline: as §1

[5] = system: giant foxtail (Setaria faberii); test: Test B pre/postemergence
Outline: as §1

[6] = system: velvetleaf (Abutilon theophrasti); test: Test B pre/postemergence
Outline: as §1

[7] = system: pigweed (Amaranthus retroflexus); test: Test B pre/postemergence
Outline: as §1

[8] = system: wheat (Triticum aestivum); test: Test B pre/postemergence
Outline: as §1

[9] = system: Surinam grass (Brachiaria decumbens); test: Test B pre/postemergence
Outline: as §1

[10] = system: barnyardgrass (Echinochloa crus-galli); test: Test B pre/postemergence
Outline: as §1

[11] = system: blackgrass (Alopecurus myosuroides); test: Test B postemergence
Outline: as §1

wild oat (Avena fatua) = test: Test B postemergence
Outline: as §1

[12] = system: duck salad (Heteranthera limosa); test: Test B flooded paddy test; details: Flood, 1000 g ai/ha; scale 0 to 100
Outline: (§2)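 Visual injury scoring (0 = no effect, 100 = complete control) versus controls made 13 to 15 days after treatment in the greenhouse. Test species were grown in flooded paddy to the 2-leaf stage: rice, barnyardgrass, umbrella sedge, duck salad.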

rice (Oryza sativa) = test: Test B flooded paddy test; details: Flood, 1000 g ai/ha; scale 0 to 100
Outline: as §2

[13] = system: umbrella sedge (Cyperus difformis); test: Test B flooded paddy test; details: Flood, 1000 g ai/ha; scale 0 to 100
Outline: as §2

[14] = system: barnyardgrass (Echinochloa crus-galli); test: Test B flooded paddy test; details: Flood, 1000 g ai/ha; scale 0 (no effect) to 100 (complete control)
Outline: as §2

[15] = Postemergence, 125 g ai/ha, scale 0 to 100 (0 no effect, 100 complete control)
[16] = Postemergence, 500 g ai/ha, scale 0 to 100
[17] = Preemergence, 125 g ai/ha, scale 0 to 100 (0 no effect, 100 complete control)
[18] = Preemergence, 500 g ai/ha, scale 0 to 100 (0 no effect, 100 complete control)
[19] = 125 g ai/ha, scale 0 to 100 (0 no effect, 100 complete control)

For `CCCCOC(=O)c1nc(C2CC2)nc(N)c1Br` [Compound 16], the “Morningglory plant response rating” value [1, 15] was 100, the “Plant response rating, Morningglory” value [1, 16] was 100 and the “Plant response rating, Morningglory” value [1, 17] was 90. For the same compound, the “Morningglory plant response rating” value [1, 18] was 100, the “Crabgrass plant response rating” value [2, 15] was 30 and the “Plant response rating, Crabgrass” value [2, 16] was 80. The “Plant response rating, Crabgrass” value [2, 17] was 70, the “Crabgrass plant response rating” value [2, 18] was 100 and the “Cocklebur plant response rating” value [3, 15] was 90. For the same compound, the “Plant response rating, Cocklebur” value [3, 16] was 100, the “Plant response rating, Cocklebur” value [3, 17] was 70 and the “Cocklebur plant response rating” value [3, 18] was 100. The “Corn plant response rating” value (corn (Zea mays); [15]) was 30, the “Plant response rating, Corn” value (corn (Zea mays); [16]) was 80 and the “Plant response rating, Corn” value (corn (Zea mays); [17]) was 30. The “Corn plant response rating” value (corn (Zea mays); [18]) was 70, the “Lambsquarters plant response rating” value [4, 15] was 100 and the “Plant response rating, Lambsquarters” value [4, 16] was 100. For the same compound, the “Plant response rating, Lambsquarters” value [4, 17] was 100, the “Lambsquarters plant response rating” value [4, 18] was 100 and the “Foxtail, Giant plant response rating” value [5, 15] was 30. For the same compound, the “Plant response rating, Foxtail, Giant” value [5, 16] was 80, the “Plant response rating, Foxtail, Giant” value [5, 17] was 30 and the “Foxtail, Giant plant response rating” value [5, 18] was 80. For the same compound, the “Velvetleaf plant response rating” value [6, 15] was 80, the “Plant response rating, Velvetleaf” value [6, 16] was 90 and the “Plant response rating, Velvetleaf” value [6, 17] was 80. For the same compound, the “Velvetleaf plant response rating” value [6, 18] was 100, the “Pigweed plant response rating” value [7, 15] was 90 and the “Plant response rating, Pigweed” value [7, 16] was 100. For the same compound, the “Plant response rating, Pigweed” value [7, 17] was 90, the “Pigweed plant response rating” value [7, 18] was 90 and the “Wheat plant response rating” value [8, 15] was 30. For the same compound, the “Plant response rating, Wheat” value [8, 16] was 60, the “Plant response rating, Wheat” value [8, 17] was 50 and the “Wheat plant response rating” value [8, 18] was 60. For the same compound, the “Surinam Grass plant response rating” value [9, 15] was 60, the “Plant response rating, Surinam Grass” value [9, 16] was 90 and the “Plant response rating, Surinam Grass” value [9, 17] was 40. The “Surinam Grass plant response rating” value [9, 18] was 80, the “Barnyardgrass plant response rating” value [10, 15] was 70 and the “Plant response rating, Barnyardgrass” value [10, 16] was 90. The “Plant response rating, Barnyardgrass” value [10, 17] was 30, the “Barnyardgrass plant response rating” value [10, 18] was 90 and the “Blackgrass plant response rating” value [11, 19] was 10. For the same compound, the “Plant response rating, Blackgrass” value ([11]; 500 g ai/ha, scale 0 to 100) was 70, the “Oat, Wild plant response rating” value (wild oat (Avena fatua); [19]) was 10 and the “Plant response rating, Oat, Wild” value (wild oat (Avena fatua); 500 g ai/ha, scale 0 to 100) was 60. The “Plant response rating, Ducksalad” value [12] was 90, the “Plant response rating, Rice” value (rice (Oryza sativa)) was 70 and the “Plant response rating, Sedge, Umbrella” value [13] was 60. The “Plant response rating, Barnyardgrass” value [14] was 90.
